We go through one compound from publication PMC9604483, “Crystal Structure of CYP3A4 Complexed with Fluorol Identifies the Substrate Access Channel as a High-Affinity Ligand Binding Site” (International Journal of Molecular Sciences, 2022).

In one series the target is CYP3A4 (Homo sapiens, UniProt P08684). Kind of series: Progesterone binding to CYP3A4 (authors' estimate of Kd). On the procedure: Equal amounts of DMSO were added to the protein solutions to avoid buffer-related changes in fluorol emission. Fluorescence changes were monitored with λex of 455 nm and a 495 nm cutoff emission filter. […] Kinetics were analyzed using the Igor Pro software (WaveMetrics, Oswego, OR, USA).
CYP3A4, sequence (P08684 whole entry): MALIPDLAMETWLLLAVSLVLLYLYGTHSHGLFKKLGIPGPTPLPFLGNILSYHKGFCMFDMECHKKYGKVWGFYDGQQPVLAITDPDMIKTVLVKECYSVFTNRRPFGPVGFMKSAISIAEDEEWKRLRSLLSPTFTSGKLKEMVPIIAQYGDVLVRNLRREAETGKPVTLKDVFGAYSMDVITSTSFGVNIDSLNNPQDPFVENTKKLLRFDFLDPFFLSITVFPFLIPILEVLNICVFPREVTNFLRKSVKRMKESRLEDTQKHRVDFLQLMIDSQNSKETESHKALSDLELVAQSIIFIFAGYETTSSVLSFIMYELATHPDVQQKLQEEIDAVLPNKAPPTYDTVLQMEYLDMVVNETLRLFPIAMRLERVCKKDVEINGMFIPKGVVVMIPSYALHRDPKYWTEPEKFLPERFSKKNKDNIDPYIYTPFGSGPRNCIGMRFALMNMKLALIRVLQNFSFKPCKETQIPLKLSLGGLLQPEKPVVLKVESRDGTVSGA

Another series deals with T1, WT CYP3A4 (Homo sapiens, UniProt P08684).
T1 construct: made in house
T1 sequence (P08684 with tags, fused parts or gaps): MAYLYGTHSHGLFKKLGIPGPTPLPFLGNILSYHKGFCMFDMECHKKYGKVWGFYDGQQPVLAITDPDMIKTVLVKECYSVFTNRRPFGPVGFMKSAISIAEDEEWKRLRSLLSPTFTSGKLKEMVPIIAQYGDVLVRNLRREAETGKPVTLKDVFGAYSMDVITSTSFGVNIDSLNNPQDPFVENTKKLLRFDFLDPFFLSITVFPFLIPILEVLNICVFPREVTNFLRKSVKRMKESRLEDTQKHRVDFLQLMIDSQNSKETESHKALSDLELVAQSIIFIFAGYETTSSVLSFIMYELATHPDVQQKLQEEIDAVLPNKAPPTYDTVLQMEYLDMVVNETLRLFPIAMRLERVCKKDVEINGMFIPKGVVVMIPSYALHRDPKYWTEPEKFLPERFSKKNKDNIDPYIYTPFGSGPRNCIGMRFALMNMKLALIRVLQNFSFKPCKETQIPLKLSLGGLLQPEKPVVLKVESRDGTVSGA
Kind of series: Equilibrium absorbance titrations of CYP3A4 with progesterone. In kind it is binding.

The target of the next series is T2, T224A CYP3A4 (Homo sapiens, UniProt P08684, T224A).
T2 construct: made in house
T2 sequence (P08684 with tags, fused parts or gaps T224A): as the sequence (P08684 with tags, fused parts or gaps) above, with T204A counted along it
Described as above. Type of series: binding.

SMILES strings stand for the structures. Like-named read-outs stand apart in the source and are kept apart here.

By Kd is commonly meant a measure of binding affinity in units of concentration. `CC(=O)[C@H]1CC[C@H]2[C@@H]3CCC4=CC(=O)CC[C@]4(C)[C@H]3CC[C@]12C` [progesterone]: the Kd is 45 µM on CYP3A4 (human) and 5 µM at CYP3A4 (our estimate, read-out: Kd, high-affinity site). Further, the “S50 (concentration at half saturation)” value was 32 ± 2 µM at WT CYP3A4 (2 μM WT CYP3A4, sigmoidal fitting) and 25 ± 4 µM on T224A CYP3A4 (2 μM T224A CYP3A4, sigmoidal fitting). The “High-spin content in PRG-bound CYP3A4” value at WT CYP3A4 (end of titration, WT) is reported as 71%; at T224A CYP3A4 (end of titration, T224A), 62%. Besides, at T224A CYP3A4 (2 μM T224A CYP3A4), the “Hill coefficient (nH)” value is recorded as 1.37. Also, the “Decrease in the high-spin content on elimination of Thr224” value at T224A CYP3A4 (PRG-bound, T224A vs WT) is listed as 9%.
